In ChEMBL document CHEMBL1201862, “PubChem BioAssay data set” (2004):
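Values below derive from 48-hour exposures of cells grown in 96-well plates, with endpoints linearly interpolated between the two concentrations bracketing the appropriate inhibition level. GI50 = concentration required for 50% inhibition of growth.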 The source made the active and inactive calls. Cut-off read from the data, not from the text of the source: active = GI50 up to about 1.1 µM and inactive = higher.

How the values were obtained:
Assay in all cases: NCI anticancer screen, dose series, 48 h
[1] = tested on: HCC 2998
[2] = tested on: HL-60
[3] = tested on: HOP-92
[4] = tested on: IGROV-1
[5] = tested on: K562
[6] = tested on: KM12
[7] = tested on: LOX IMVI
[8] = tested on: MCF7
[9] = tested on: MDA-MB-231
[10] = tested on: MOLT-4
[11] = tested on: NCI/ADR-RES
[12] = tested on: OVCAR-3
[13] = tested on: PC-3
[14] = tested on: RPMI-8226
[15] = tested on: SNB-75
[16] = tested on: SW-620
[17] = tested on: TK-10
[18] = tested on: UACC-257

Compound | GI50 [1] | GI50 [2] | GI50 [3] | GI50 [4] | GI50 [5] | GI50 [6] | GI50 [7] | GI50 [8] | GI50 [9] | GI50 [10] | GI50 [11] | GI50 [12] | GI50 [13] | GI50 [14] | GI50 [15] | GI50 [16] | GI50 [17] | GI50 [18]
Cc1cc(O)nc2cc3oc4ccccc4c3cc12 | 2.72 µM (inactive) | 17.6 µM (inactive) | > 100 µM (inactive) | > 63.7 µM (inactive) | 30.9 µM (inactive) | 70.1 µM (inactive) | > 28.2 µM (inactive) | 4.55 µM (inactive) | 52 µM (inactive) | 3.71 µM (inactive) | > 100 µM (inactive) | > 33.6 µM (inactive) | > 100 µM (inactive) | 37.9 µM (inactive) | > 100 µM (inactive) | 35.2 µM (inactive) | 30.6 µM (inactive) | > 50.2 µM (inactive)
S=C(NCc1ccccc1)c1nc[nH]c1C(=S)NCc1ccccc1 | 10 µM (inactive) | 7.69 µM (inactive) | 1.88 µM (inactive) | 5.08 µM (inactive) | 4.4 µM (inactive) | 6.07 µM (inactive) | 4.72 µM (inactive) | 2.55 µM (inactive) | 10 µM (inactive) | 4.85 µM (inactive) | 3.41 µM (inactive) | 6 µM (inactive) | 7.82 µM (inactive) | 5.19 µM (inactive) | 6.12 µM (inactive) | 4.98 µM (inactive) | 10.5 µM (inactive) | 10.1 µM (inactive)
CN(C)Cc1cc(/N=N/c2ccc(Cl)cc2)ccc1O | 14.6 µM (inactive) | 13.5 µM (inactive) | 4.46 µM (inactive) | 15.8 µM (inactive) | 17.3 µM (inactive) | 17.3 µM (inactive) | 11.4 µM (inactive) | 17.4 µM (inactive) | 16.1 µM (inactive) | 15.2 µM (inactive) | 17.7 µM (inactive) | 11.5 µM (inactive) | 14.7 µM (inactive) | > 10 µM (inactive) | 14.9 µM (inactive) | 16.4 µM (inactive) | 15 µM (inactive) | 18.7 µM (inactive)
Cc1ccc(/C=N/Nc2nncc3ccccc23)s1 | > 72.8 µM (inactive) | > 100 µM (inactive) | > 100 µM (inactive) | > 61 µM (inactive) | > 100 µM (inactive) | > 46.2 µM (inactive) | > 61.2 µM (inactive) | 19.5 µM (inactive) | 33 µM (inactive) | > 100 µM (inactive) | 48 µM (inactive) | > 55.8 µM (inactive) | 96.8 µM (inactive) | > 100 µM (inactive) | > 44.2 µM (inactive) | > 100 µM (inactive) | > 52 µM (inactive) | > 100 µM (inactive)
O=C1C(Cl)=C(N2CCN(c3ccccn3)CC2)C(=O)c2c(O)ccc(O)c21 | 2.51 µM (inactive) | 0.128 µM (active) | 1.21 µM (inactive) | 1.63 µM (inactive) | 0.512 µM (active) | 3.1 µM (inactive) | 0.157 µM (active) | 1.42 µM (inactive) | 1.74 µM (inactive) | 0.456 µM (active) | 2.38 µM (inactive) | 1.95 µM (inactive) | 1.94 µM (inactive) | 0.394 µM (active) | 1.89 µM (inactive) | 0.665 µM (active) | 2.29 µM (inactive) | 1.84 µM (inactive)
[N-]=[N+]=Nc1c(Cc2ccccc2)c(Cl)nc2ccccc12 | 49.4 µM (inactive) | 23.8 µM (inactive) | 20.2 µM (inactive) | 26.6 µM (inactive) | 23.9 µM (inactive) | 16.3 µM (inactive) | 18.4 µM (inactive) | 21.3 µM (inactive) | 18.7 µM (inactive) | 28.8 µM (inactive) | 22.4 µM (inactive) | 12.5 µM (inactive) | 25.6 µM (inactive) | 38.3 µM (inactive) | 22.6 µM (inactive) | 33.4 µM (inactive) | 23.8 µM (inactive) | 33.5 µM (inactive)
NC(C(F)(F)F)(C(F)(F)F)P(=O)(c1ccccc1)c1ccccc1 | > 100 µM (inactive) | > 100 µM (inactive) | > 100 µM (inactive) | > 100 µM (inactive) | > 100 µM (inactive) | > 100 µM (inactive) | > 100 µM (inactive) | > 100 µM (inactive) | > 100 µM (inactive) | > 100 µM (inactive) | > 100 µM (inactive) | > 100 µM (inactive) | > 100 µM (inactive) | > 100 µM (inactive) | > 100 µM (inactive) | > 100 µM (inactive) | > 100 µM (inactive) | > 100 µM (inactive)
